Target: T1, human Nav1.8 channels (Homo sapiens, UniProt Q9Y5Y9)
T1 construct: expressed in transfected cells
Test: Nav1.8 Qube automated patch-clamp assay
Format: cell-based
Conditions: human Nav1.8 stably expressed in HEK 293 cells; whole-cell voltage clamp, room temperature; resting or inactivated state not specified; read-out: IC50 values (nM) for Examples in the Nav1.8 Qube Assay
Summary of the method: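 Whole-cell patch clamp at room temperature on HEK293 cells stably expressing human Nav1.8. A 1 Hz train of ten 20 ms pulses to 10 mV from −90 mV holding, with −67 mV repolarization, was applied; first- and tenth-pulse peak currents gave resting and inactivated-state IC50s by Hill fitting.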

T1 sequence (Q9Y5Y9 whole entry): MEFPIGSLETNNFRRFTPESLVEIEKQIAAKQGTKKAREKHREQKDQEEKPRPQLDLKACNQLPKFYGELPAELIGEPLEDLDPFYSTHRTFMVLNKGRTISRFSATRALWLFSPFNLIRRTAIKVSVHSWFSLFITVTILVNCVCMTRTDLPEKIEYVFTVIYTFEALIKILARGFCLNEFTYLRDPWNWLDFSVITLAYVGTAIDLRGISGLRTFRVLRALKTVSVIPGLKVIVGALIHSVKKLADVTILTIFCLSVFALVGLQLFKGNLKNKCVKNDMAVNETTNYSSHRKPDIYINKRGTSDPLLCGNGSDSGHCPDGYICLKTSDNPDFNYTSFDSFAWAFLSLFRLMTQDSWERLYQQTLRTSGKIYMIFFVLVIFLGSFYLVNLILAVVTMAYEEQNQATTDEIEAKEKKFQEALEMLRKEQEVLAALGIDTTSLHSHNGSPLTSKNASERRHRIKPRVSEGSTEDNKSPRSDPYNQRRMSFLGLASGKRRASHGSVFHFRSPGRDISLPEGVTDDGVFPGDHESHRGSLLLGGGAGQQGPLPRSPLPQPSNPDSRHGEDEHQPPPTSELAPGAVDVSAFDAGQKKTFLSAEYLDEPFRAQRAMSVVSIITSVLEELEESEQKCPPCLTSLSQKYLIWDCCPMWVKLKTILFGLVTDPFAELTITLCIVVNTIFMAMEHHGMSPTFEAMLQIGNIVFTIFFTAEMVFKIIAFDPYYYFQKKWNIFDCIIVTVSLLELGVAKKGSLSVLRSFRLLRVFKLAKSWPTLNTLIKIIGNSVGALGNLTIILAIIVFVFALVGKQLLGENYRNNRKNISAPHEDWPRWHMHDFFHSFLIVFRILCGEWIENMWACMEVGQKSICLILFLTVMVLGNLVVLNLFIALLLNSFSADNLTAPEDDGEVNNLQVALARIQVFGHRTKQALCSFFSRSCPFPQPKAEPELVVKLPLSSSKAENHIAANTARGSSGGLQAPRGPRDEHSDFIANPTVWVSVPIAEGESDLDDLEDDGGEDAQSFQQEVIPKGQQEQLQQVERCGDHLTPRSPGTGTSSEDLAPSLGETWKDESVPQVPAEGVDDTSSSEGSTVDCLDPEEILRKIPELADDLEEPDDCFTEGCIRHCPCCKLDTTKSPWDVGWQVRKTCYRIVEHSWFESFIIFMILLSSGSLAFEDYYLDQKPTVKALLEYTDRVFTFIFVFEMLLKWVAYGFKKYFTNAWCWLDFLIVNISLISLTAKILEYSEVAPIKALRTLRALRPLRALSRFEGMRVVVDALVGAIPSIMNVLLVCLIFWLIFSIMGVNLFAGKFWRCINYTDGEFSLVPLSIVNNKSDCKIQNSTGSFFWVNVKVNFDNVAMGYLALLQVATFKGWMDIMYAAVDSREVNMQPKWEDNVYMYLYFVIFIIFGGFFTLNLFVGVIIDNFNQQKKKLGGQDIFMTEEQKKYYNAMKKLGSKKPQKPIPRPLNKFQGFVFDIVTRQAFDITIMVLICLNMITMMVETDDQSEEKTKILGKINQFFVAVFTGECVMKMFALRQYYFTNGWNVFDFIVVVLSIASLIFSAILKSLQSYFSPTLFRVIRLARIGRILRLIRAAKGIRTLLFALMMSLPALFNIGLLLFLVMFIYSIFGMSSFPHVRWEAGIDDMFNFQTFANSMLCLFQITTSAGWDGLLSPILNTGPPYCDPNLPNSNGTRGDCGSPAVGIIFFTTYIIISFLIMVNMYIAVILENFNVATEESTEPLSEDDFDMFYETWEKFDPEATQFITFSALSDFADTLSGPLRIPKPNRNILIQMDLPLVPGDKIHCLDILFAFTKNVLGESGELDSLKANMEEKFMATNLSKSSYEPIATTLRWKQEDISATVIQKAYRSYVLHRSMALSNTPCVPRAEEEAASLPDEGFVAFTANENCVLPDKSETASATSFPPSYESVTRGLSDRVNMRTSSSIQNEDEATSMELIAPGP

**Q.** With Cc1nc(N2CCCCC2)c(C(=O)Nc2cncc(S(N)(=O)=O)c2)c(C)c1Cl [Example 191, 5-chloro-4,6-dimethyl-2-(1-piperidyl)-N-(5-sulfamoyl-3-pyridyl)pyridine-3-carboxamide] as the compound, how does the IC50 read?
**A.** 124 nM

**Q.** For O=C(Nc1ccnc(S(=O)(=O)O)c1)c1cc(C(F)(F)F)cnc1N1CCC(F)(F)CC1 [Example 176, 4-(2-(4,4-difluoropiperidin-1-yl)-5-(trifluoromethyl)nicotinamido)pyridine-2-sulfonic acid], which IC50 is on record?
**A.** 1090 nM

**Q.** For Cc1nc(N2CCC3(CC2)CC3)c(C(=O)Nc2cc[nH]c(=O)c2)c(C)c1Cl [Example 209, 5-chloro-4,6-dimethyl-N-(2-oxo-1,2-dihydropyridin-4-yl)-2-(6-azaspiro[2.5]octan-6-yl)nicotinamide], which IC50 is on record?
**A.** 12 nM

**Q.** With CC1(C)c2cc(F)ccc2CN1c1ncc(C(F)(F)F)cc1C(=O)Nc1ccnc(S(N)(=O)=O)c1 [Example 113, 2-(6-fluoro-1,1-dimethyl-isoindolin-2-yl)-N-(2-sulfamoyl-4-pyridyl)-5-(trifluoromethyl)pyridine-3-carboxamide] as the compound, how does the IC50 read?
**A.** 9330 nM

**Q.** How did the IC50 turn out when NS(=O)(=O)c1cc(NC(=O)c2cc(C(F)(F)F)cnc2N2C[C@@H]3[C@H](C2)C(F)(F)C3(F)F)ccn1 [Example 60, N-(2-sulfamoylpyridin-4-yl)-2-((1R,5S)-6,6,7,7-tetrafluoro-3-azabicyclo[3.2.0]heptan-3-yl)-5-(trifluoromethyl)nicotinamide] was run?
**A.** 14 nM

**Q.** How did the IC50 turn out when Cc1ccc(C(=O)Nc2cncc(S(N)(=O)=O)c2)c(N2CCC(F)(F)CC2)n1 [Example 9, 2-(4,4-difluoro-1-piperidyl)-6-methyl-N-(5-sulfamoyl-3-pyridyl)pyridine-3-carboxamide] was run?
**A.** 816 nM

**Q.** NS(=O)(=O)c1cncc(NC(=O)c2cc(C(F)(F)F)cnc2N2CCCCCC2)c1 [Example 145, 2-(azepan-1-yl)-N-(5-sulfamoyl-3-pyridyl)-5-(trifluoromethyl) pyridine-3-carboxamide] was tested. Which IC50 did it give?
**A.** 161 nM

**Q.** For O=C(Nc1cc[nH]c(=O)c1)c1cc(C(F)(F)F)cnc1N1CCCCCC1 [Example 212, 2-(azepan-1-yl)-N-(2-oxo-1,2-dihydropyridin-4-yl)-5-(trifluoromethyl)nicotinamide], which IC50 is on record?
**A.** 570 nM

**Q.** NS(=O)(=O)c1cc(NC(=O)c2cc(C(F)(F)F)cnc2N2CC3CCC3(C(F)(F)F)C2)ccn1 (single isomer, unassigned) [Example 59, N-(2-sulfamoyl-4-pyridyl)-5-(trifluoromethyl)-2-[(1R,5R or 1S,5S)-1-(trifluoromethyl)-3-azabicyclo[3.2.0]heptan-3-yl]pyridine-3-carboxamide] was tested. Which IC50 did it give?
**A.** 116 nM

**Q.** Which IC50 does the source give for COc1ccnc(N2CCC(F)(F)CC2)c1C(=O)Nc1ccnc(S(N)(=O)=O)c1 [Example 159, 2-(4,4-difluoropiperidin-1-yl)-4-methoxy-N-(2-sulfamoylpyridin-4-yl)nicotinamide] here?
**A.** 1630 nM

**Q.** How did the IC50 turn out when NS(=O)(=O)c1cc(NC(=O)c2cc(C(F)(F)F)cnc2N2CC(Oc3ccc(C(F)(F)F)cc3)C2)ccn1 [Example 97, N-(2-sulfamoyl-4-pyridyl)-5-(trifluoromethyl)-2-[3-[4-(trifluoromethyl)phenoxy]azetidin-1-yl]pyridine-3-carboxamide] was run?
**A.** 1900 nM

**Q.** Which IC50 does the source give for NS(=O)(=O)c1cncc(NC(=O)c2cc(C(F)(F)F)cnc2N2CCCC(F)(F)CC2)c1 [Example 144, 2-(4,4-difluoroazepan-1-yl)-N-(5-sulfamoyl-3-pyridyl)-5-(trifluoro-methyl)pyridine-3-carboxamide] here?
**A.** 36 nM

**Q.** How did the IC50 turn out when O=C(Nc1cc[nH]c(=O)c1)c1cc(C(F)(F)F)cnc1N1CCC2(CC1)CC2 [Example 208, N-(2-oxo-1,2-dihydropyridin-4-yl)-2-(6-azaspiro[2.5]octan-6-yl)-5-(trifluoromethyl)nicotinamide] was run?
**A.** 287 nM

**Q.** How did the IC50 turn out when NS(=O)(=O)c1cc(NC(=O)c2cc(C3CC3)c(C3CC3)nc2N2CCC(F)(F)CC2)ccn1 [Example 12, 5,6-dicyclopropyl-2-(4,4-difluoropiperidin-1-yl)-N-(2-sulfamoylpyridin-4-yl)nicotinamide] was run?
**A.** 94 nM

**Q.** How did the IC50 turn out when CC1CN(c2ncc(C(F)(F)F)cc2C(=O)Nc2ccnc(S(N)(=O)=O)c2)CC(C)C1O [Example 78, 2-[(3S,4r,5R)-4-hydroxy-3,5-dimethyl-1-piperidyl]-N-(2-sulfamoyl-4-pyridyl)-5-(trifluoromethyl)pyridine-3-carboxamide] was run?
**A.** 5080 nM

**Q.** CC1CN(c2ncc(C(F)(F)F)cc2C(=O)Nc2ccnc(S(N)(=O)=O)c2)CCC1(Cl)Cl (single isomer, unassigned) [Example 50, (S or R)-2-(4,4-dichloro-3-methylpiperidin-1-yl)-N-(2-sulfamoylpyridin-4-yl)-5-(trifluoromethyl)nicotinamide] was tested. Which IC50 did it give?
**A.** 14 nM

**Q.** How did the IC50 turn out when Cc1nc(N2CCOC(C(F)F)CC2)c(C(=O)Nc2ccnc(S(N)(=O)=O)c2)cc1Cl (single isomer, unassigned) [Example 117, 5-chloro-2-[(7S or 7R)-7-(difluoromethyl)-1,4-oxazepan-4-yl]-6-methyl-N-(2-sulfamoylpyridin-4-yl)pyridine-3-carboxamide] was run?
**A.** 18 nM

**Q.** How did the IC50 turn out when NS(=O)(=O)c1cc(NC(=O)c2ncc(Cl)nc2N2CCCC(F)(F)CC2)ccn1 [Example 216, 5-chloro-3-(4,4-difluoroazepan-1-yl)-N-(2-sulfamoylpyridin-4-yl)pyrazine-2-carboxamide] was run?
**A.** 80 nM

**Q.** For CC1CN(c2nc(C(F)(F)F)c(Cl)cc2C(=O)Nc2ccnc(S(N)(=O)=O)c2)CCC1(F)F (single isomer, unassigned) [Example 164, (S or R)-5-chloro-2-(4,4-difluoro-3-methylpiperidin-1-yl)-N-(2-sulfamoylpyridin-4-yl)-6-(trifluoromethyl)nicotinamide], which IC50 is on record?
**A.** 3.3 nM

**Q.** How did the IC50 turn out when C[C@@H]1CN(c2ncc(C(F)(F)F)cc2C(=O)Nc2ccnc(S(N)(=O)=O)c2)C[C@@H](C(F)(F)F)O1 [Example 102, 2-((2R,6S)-2-methyl-6-(trifluoromethyl)morpholino)-N-(2-sulfamoylpyridin-4-yl)-5-(trifluoromethyl)nicotinamide] was run?
**A.** 27 nM

**Q.** With NS(=O)(=O)c1cc(NC(=O)c2cc(C(F)(F)F)cnc2N2CCN(CC(F)(F)F)CC2)ccn1 [Example 100, N-(2-sulfamoyl-4-pyridyl)-2-[4-(2,2,2-trifluoroethyl)piperazin-1-yl]-5-(trifluoromethyl)pyridine-3-carboxamide] as the compound, how does the IC50 read?
**A.** 4630 nM

**Q.** Which IC50 does the source give for COc1cc(NC(=O)c2cc(C(F)(F)F)cnc2N2CCCC(F)(F)CC2)ccn1 [Example 146, 2-(4,4-difluoroazepan-1-yl)-N-(2-methoxy-4-pyridyl)-5-(trifluoro-methyl)pyridine-3-carboxamide] here?
**A.** 177 nM

**Q.** CC1(C)CN(c2ncc(C(F)(F)F)cc2C(=O)Nc2ccnc(S(N)(=O)=O)c2)CC(C(F)(F)F)O1 (single isomer, unassigned) [Example 136, (S or R)-2-(2,2-dimethyl-6-(trifluoromethyl)-morpholino)-N-(2-sulfamoylpyridin-4-yl)-5-(trifluoromethyl)nicotinamide] was tested. Which IC50 did it give?
**A.** 494 nM

**Q.** How did the IC50 turn out when NS(=O)(=O)c1cc(NC(=O)c2ccc(C(F)F)nc2N2CCCC(F)(F)CC2)ccn1 [Example 174, 2-(4,4-difluoroazepan-1-yl)-6-(difluoromethyl)-N-(2-sulfamoylpyridin-4-yl)nicotinamide] was run?
**A.** 4.1 nM

**Q.** How did the IC50 turn out when NS(=O)(=O)c1cc(NC(=O)c2cc(C(F)(F)F)cnc2N2CCOC(C(F)(F)F)CC2)ccn1 (single isomer, unassigned) [Example 118, (R or S)-N-(2-sulfamoylpyridin-4-yl)-5-(trifluoromethyl)-2-(7-(trifluoromethyl)-1,4-oxazepan-4-yl)nicotinamide] was run?
**A.** 54 nM

**Q.** Which IC50 does the source give for NC(=O)c1cc(NC(=O)c2cc(C(F)(F)F)cnc2N2CCCCCC2)ccn1 [Example 203, 4-(2-(azepan-1-yl)-5-(trifluoromethyl)nicotinamido)picolinamide] here?
**A.** 139 nM

**Q.** For Cc1nc(N2CCOC(C(F)F)CC2)c(C(=O)Nc2ccnc(S(N)(=O)=O)c2)cc1Cl (single isomer, unassigned) [Example 116, 5-chloro-2-[(7R or 7S)-7-(difluoromethyl)-1,4-oxazepan-4-yl]-6-methyl-N-(2-sulfamoylpyridin-4-yl)pyridine-3-carboxamide], which IC50 is on record?
**A.** 32 nM

**Q.** Which IC50 does the source give for CC1(C)CN(c2ncc(C(F)(F)F)cc2C(=O)Nc2ccnc(S(N)(=O)=O)c2)CCO1 [Example 88, 2-(2,2-dimethylmorpholin-4-yl)-N-(2-sulfamoyl-4-pyridyl)-5-(trifluoromethyl)pyridine-3-carboxamide] here?
**A.** 275 nM

**Q.** NS(=O)(=O)c1cc(NC(=O)c2cc(C3CC3)c(C(F)(F)F)nc2N2CCC(F)(F)CC2)ccn1 [Example 181, 5-cyclopropyl-2-(4,4-difluoropiperidin-1-yl)-N-(2-sulfamoylpyridin-4-yl)-6-(trifluoromethyl)nicotinamide] was tested. Which IC50 did it give?
**A.** 17 nM

**Q.** Which IC50 does the source give for NS(=O)(=O)c1cc(NC(=O)c2cc(C(F)(F)F)cnc2N2CCCC3(C2)CC3(F)F)ccn1 (single isomer, unassigned) [Example 67, (S or R)-2-(1,1-difluoro-5-azaspiro[2.5]octan-5-yl)-N-(2-sulfamoylpyridin-4-yl)-5-(trifluoromethyl)nicotinamide] here?
**A.** 25 nM

**Q.** NS(=O)(=O)c1cc(NC(=O)c2cc(C(F)(F)F)cnc2N2CCSCC2)ccn1 [Example 84, N-(2-sulfamoyl-4-pyridyl)-2-thiomorpholino-5-(trifluoromethyl)pyridine-3-carboxamide] was tested. Which IC50 did it give?
**A.** 147 nM

**Q.** With O=C(O)c1ccc(NC(=O)c2cc(C(F)(F)F)cnc2N2CCC(F)(F)CC2)cn1 [Example 3, 5-(2-(4,4-difluoropiperidin-1-yl)-5-(trifluoromethyl)nicotinamido)picolinic acid] as the compound, how does the IC50 read?
**A.** 2380 nM

**Q.** CC1CN(c2nc(C(F)(F)F)ccc2C(=O)Nc2ccnc(S(N)(=O)=O)c2)CCC1(F)F (single isomer, unassigned) [Example 162, (R or S)-2-(4,4-difluoro-3-methylpiperidin-1-yl)-N-(2-sulfamoylpyridin-4-yl)-6-(trifluoromethyl)nicotinamide] was tested. Which IC50 did it give?
**A.** 22 nM

Source: US20210387966A1, “2-AMINO-N-HETEROARYL-NICOTINAMIDES AS NAV1.8 INHIBITORS” (Merck Sharp & Dohme Corp., priority 2018, published 2021)
